How the values were obtained:
[1] = In vivo glycoside prodrug bioactivation, oral dosing to C57BI/6 mice; conditions: labrasol/5%dextrose solution, over 48 hours
[2] = Bidirectional Caco-2 permeability assay; format: in vitro ADME; conditions: human; Caco-2, 10 µM, apical pH 6.0 / basolateral pH 7.4, average of 2 determinations
Experimental: In vitro glycoside prodrug permeability assessment. The permeability of the glycoside prodrugs were measured using the bidirectional Caco-2 assay. Caco-2 cells were seeded onto permeable polycarbonate supports in 12-well Costar Transwell plates and allowed to grow and differentiate for 21-25 days. On day 24, culture medium (DMEM supplemented with 10% FBS, 1% non-essential amino acids and penicillin/streptomycin) was removed from both sides of the transwell inserts and cells were rinsed with warm HBSS. […] The buffer in the donor chamber (apical side for A-to-B assay, basolateral side for B-to-A assay) was removed and replaced with the working solution (10 µM test article in transport buffer). The plates were then placed at 37° C. under light agitation. At designated time points (30, 60 and 90 min); an aliquot of transport buffer from the receiver chamber was removed and replenished with fresh transport buffer. Samples were quenched with ice-cold CH3CN containing internal standard and then centrifuged to precipitate the protein. Resulting supernatants were further diluted with 50/50 ACN/H2O (H2O only for Atenolol) and submitted for LC/MS/MS analysis. […] Atenolol and propranolol were tested as low and […] permeability references. […] The apparent permeability (Papp, measured in cm/s) of a compound is determined according to the following formula: […]
Where dQ/dt is the net rate of appearance in the receiver compartment, A is the area of the Transwell measured in cm^2 (1.12 cm^2), C0 is the initial concentration of compound added to the donor chamber and 60 is the conversion factor for the minute to second.

[3] = Negative control: incubation in mouse feces extract supernatant inactivated by boiling; format: in vitro ADME; conditions: 24 hours, mouse feces supernatant boiled 10 minutes (no enzyme activities)
Experimental: (§1) In vitro rate of glycoside prodrugs hydrolysis. The metabolic stability of prodrug candidates to release the parent PDE4 inhibitor could be assessed in vitro according, but not restricted, to the following protocol: feces were collected overnight on a mixture of dry and wet ice in a metabolic cage. Ten volumes (v/w; 30 mL) of 100 mM phosphate buffer (pH 6.5) were added to 3 g of freshly collected rodent feces. The mixture was homogenized with a Stomacher Circulator 400 (2 × 1 min-cycles at 225 rpm). The mixture was transferred to a 50 mL tubes, centrifuged at 10 000xg for 10 min (4° C.) and the supernatant was passed through a 0.45 µm-filter. In a 96 deep-well plate, 198 µL of feces supernatant were aliquoted in 2 wells per compound. Each compound, including positive control, was tested in duplicate. Then 2 µL of 10 mM stock solution of each test compound were spiked in individual wells (duplicate) at a final concentration of 100 µM and samples were sealed and mixed 30 sec at 1000 rpm using a vortexer. Samples were incubated at 37° C. for the desired time in the Thermomixer with constant agitation (300 rpm). At desired time-point, 25 µL of reaction mixture was added to 225 µL of ice-cold quenching solution (acetonitrile + 0.1% (v/v) formic acid) to stop the bacterial enzymatic activity. The quenched incubates were mixed and centrifuged 10 min at 21 000xg at 4° C. A real t0 (no metabolism, 100% total recovery of unchanged prodrug) was generated by adding 22.5 µL of feces supernatant to 225 µL of ice-cold quenching solution (acetonitrile + 0.1% (v/v) formic acid). Then 2.5 µL of 1 mM solution of each test compounds was added, sealed, mixed thoroughly and centrifuged 10 min at 21 000xg at 4° C. All samples, including analytical standards, were analyzed by LC-MS/MS to measure the concentration of the parent PDE4 inhibitor released and the concentration of the corresponding prodrug remaining. […]

[4] = test system: β-D-glucuronidase; assay: Positive control: incubation with β-D-glucuronidase in phosphate buffer; format: in vitro ADME; conditions: β-D-glucuronidase 50U/mL, phosphate buffer pH 6.5, 37° C., 24 hours
[5] = In vitro rate of glycoside prodrug hydrolysis in feces supernatant, mouse; format: in vitro ADME; conditions: 100 µM, 37° C., pH 6.5, 24 hr
Experimental: (§2) In vitro rate of glycoside prodrugs hydrolysis. The metabolic stability of prodrug candidates to release the parent PDE4 inhibitor could be assessed in vitro according, but not restricted, to the following protocol: feces were collected overnight on a mixture of dry and wet ice in a metabolic cage. Ten volumes (v/w; 30 mL) of 100 mM phosphate buffer (pH 6.5) were added to 3 g of freshly collected rodent feces. The mixture was homogenized with a Stomacher Circulator 400 (2 × 1 min-cycles at 225 rpm). The mixture was transferred to a 50 mL tubes, centrifuged at 10 000xg for 10 min (4° C.) and the supernatant was passed through a 0.45 µm-filter. In a 96 deep-well plate, 198 µL of feces supernatant were aliquoted in 2 wells per compound. Each compound, including positive control, was tested in duplicate. Then 2 µL of 10 mM stock solution of each test compound were spiked in individual wells (duplicate) at a final concentration of 100 µM and samples were sealed and mixed 30 sec at 1000 rpm using a vortexer. Samples were incubated at 37° C. for the desired time in the Thermomixer with constant agitation (300 rpm). At desired time-point, 25 µL of reaction mixture was added to 225 µL of ice-cold quenching solution (acetonitrile + 0.1% (v/v) formic acid) to stop the bacterial enzymatic activity. The quenched incubates were mixed and centrifuged 10 min at 21 000xg at 4° C. A real t0 (no metabolism, 100% total recovery of unchanged prodrug) was generated by adding 22.5 µL of feces supernatant to 225 µL of ice-cold quenching solution (acetonitrile + 0.1% (v/v) formic acid). Then 2.5 µL of 1 mM solution of each test compounds was added, sealed, mixed thoroughly and centrifuged 10 min at 21 000xg at 4° C. All samples, including analytical standards, were analyzed by LC-MS/MS to measure the concentration of the parent PDE4 inhibitor released and the concentration of the corresponding prodrug remaining. A set criteria of 100% recovery is targeted where the summation of the % of prodrug remaining and the % of parent PDE4 inhibitor released should be 100% with an experimental error tolerance of ± 20%. When prodrugs represented by Formula (I) were incubated 24 hours under the conditions described above using mouse, rat and dog feces, the glycoside prodrugs were hydrolyzed to release the corresponding parent PDE4 inhibitor III (Table 3). As a negative control, when compound 4, 10 and 21 were incubated 24 hours under the conditions described above but in the absence of enzyme activities, using mouse feces extract supernatant inactivated by boiling the supernatant 10 minutes, 100% of the prodrugs were recovered unchanged.

[6] = In vivo glycoside prodrug bioactivation, oral dosing to rats
[7] = In vitro rate of glycoside prodrug hydrolysis in feces supernatant, rat; format: in vitro ADME; conditions: 100 µM, 37° C., pH 6.5, 24 hr
Experimental: as §2

[8] = In vitro rate of glycoside prodrug hydrolysis in feces supernatant, dog; format: in vitro ADME; conditions: 100 µM, 37° C., pH 6.5, 24 hr
Experimental: as §1, with “At desired time-point, 25 µL of reaction mixture was added to 225 µL of ice-cold quenching solution (acetonitrile + 0.1% (v/v) formic acid) to stop the bacterial enzymatic activity. The quenched incubates were mixed and centrifuged 10 min at 21 000xg at 4° C. A real t0 (no metabolism, 100% total recovery of unchanged prodrug) was generated by adding 22.5 µL of feces supernatant to 225 µL of ice-cold quenching solution (acetonitrile + 0.1% (v/v) formic acid). Then 2.5 µL of 1 mM solution of each test compounds was added, sealed, mixed thoroughly and centrifuged 10 min at 21 000xg at 4° C.” left out

[9] = target: PDE4D2 (Homo sapiens, UniProt Q08499); assay: Inhibitory potency against PDE4 isozymes (FAM-cAMP fluorescence polarization), PDE4D2
PDE4D2, sequence (Q08499 303-809 limits assumed): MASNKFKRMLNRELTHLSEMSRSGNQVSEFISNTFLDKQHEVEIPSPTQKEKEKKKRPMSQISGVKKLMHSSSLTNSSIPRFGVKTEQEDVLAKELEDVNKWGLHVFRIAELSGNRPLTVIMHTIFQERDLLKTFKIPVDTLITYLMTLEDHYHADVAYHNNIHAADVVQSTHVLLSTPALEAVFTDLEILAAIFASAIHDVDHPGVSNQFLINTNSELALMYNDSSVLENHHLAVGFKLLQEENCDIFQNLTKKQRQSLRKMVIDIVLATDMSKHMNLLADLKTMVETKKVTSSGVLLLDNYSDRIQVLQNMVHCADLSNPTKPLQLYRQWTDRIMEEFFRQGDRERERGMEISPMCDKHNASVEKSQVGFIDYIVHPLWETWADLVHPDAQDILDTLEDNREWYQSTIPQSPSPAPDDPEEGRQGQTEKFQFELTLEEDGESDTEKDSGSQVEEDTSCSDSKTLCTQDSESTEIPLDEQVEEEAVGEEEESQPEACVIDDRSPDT

[10] = test system: LPS-induced TNFα in human whole blood; assay: LPS-induced TNFα assay in human whole blood; format: cell-based; conditions: human whole blood from 12 healthy volunteers, LPS 1 µg/mL, 24 h; read-out: average IC50, TNFα inhibition
Experimental: TNFα inhibition assay protocol. Potency of PDE4 inhibitors in the LPS-induced TNFα assay in human whole blood was measured using the following protocol: fresh blood is collected in heparinized tubes by venipuncture from healthy human volunteers (male and female). These subjects should not have apparent inflammatory conditions, no symptoms of bacterial/viral infection, no fever and should not take any NSAIDs for at least 1 week prior to blood collection. Blood from each donor was dispensed in a 96-deep well plate, 500 µL per well. Blood was pre-incubated with either 2 µL of vehicle (DMSO) or test compound at 37° C. /5% CO2 for 15 min. […] Duplicate independent incubations were performed for each inhibitor concentration with blood from each donor. Appropriate PBS controls (no LPS) were used as blanks (4 wells) while blood samples stimulated with LPS controls (no PDE4 inhibitor) served as positive controls (4 wells). […] Plasma TNFα was quantified by ELISA (Invitrogen, Frederick, MD, USA) following the manufacturer’s instructions. […] Assay plates were read on an Infinite F200 PRO-Tecan reader at 450 nm. Absorbance values were converted to % inhibition based on positive and negative control values on each plate, and resulting % inhibition data were fit to a four-parameter logistic by nonlinear regression using GraphPad Prism (version 6.00, GraphPad Software, Inc., La Jolla, CA, USA). […]

[11] = in vivo; conditions: C57BI/6, mouse, po
[12] = target: PDE4B1 (Homo sapiens, UniProt Q07343); assay: Inhibitory potency against PDE4 isozymes (FAM-cAMP fluorescence polarization), PDE4B1
PDE4B1, sequence (Q07343 whole entry, species assumed): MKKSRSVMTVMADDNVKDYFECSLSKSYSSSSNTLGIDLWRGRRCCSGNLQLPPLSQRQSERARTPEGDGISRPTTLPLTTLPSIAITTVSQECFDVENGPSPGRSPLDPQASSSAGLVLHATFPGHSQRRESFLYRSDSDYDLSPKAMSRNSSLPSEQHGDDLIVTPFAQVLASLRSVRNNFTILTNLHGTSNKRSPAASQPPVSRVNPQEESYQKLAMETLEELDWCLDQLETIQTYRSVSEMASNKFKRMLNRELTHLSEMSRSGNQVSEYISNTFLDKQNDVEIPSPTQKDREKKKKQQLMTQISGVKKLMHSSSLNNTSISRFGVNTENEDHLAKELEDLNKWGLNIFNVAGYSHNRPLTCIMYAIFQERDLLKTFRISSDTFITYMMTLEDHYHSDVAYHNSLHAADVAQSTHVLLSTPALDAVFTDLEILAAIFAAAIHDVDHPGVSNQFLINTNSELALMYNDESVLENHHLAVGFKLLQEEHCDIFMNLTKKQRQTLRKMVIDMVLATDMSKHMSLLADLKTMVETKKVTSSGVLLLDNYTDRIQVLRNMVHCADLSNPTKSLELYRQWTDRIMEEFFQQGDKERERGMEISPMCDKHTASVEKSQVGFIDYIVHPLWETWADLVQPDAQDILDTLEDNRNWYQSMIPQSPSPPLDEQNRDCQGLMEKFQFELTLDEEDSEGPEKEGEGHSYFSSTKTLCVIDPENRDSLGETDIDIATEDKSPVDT

Compound | unchanged prodrug detected in excreted feces [1] | Papp A→B at 10 µM [2] [×10⁻⁶ cm/s] | prodrug recovered unchanged [3] [%] | prodrug recovered unchanged [4] [%] | Prodrug Remaining @ 24 hr (%) [5] [%] | extent of prodrug bioactivation (ratio of parent IIIb over residual prodrug 10 in excreted feces) ([6]; oral, aqueous suspension, over 24 hours) [%] | Prodrug Remaining @ 24 hr (%) [7] [%] | Prodrug Remaining @ 24 hr (%) [8] [%] | IC50 [9] [nM] | IC50 [10] [nM] | Kp [11] | IC50 [12] [nM] | time before which released IIIb was not detected in blood ([6]; compound 10 orally as aqueous suspension) [h]
COC(=O)[C@H]1O[C@@H](Oc2ccc(C[C@H](c3ccc(C(C)(C)O)nc3)c3ccc(OC(F)F)c(OC4CC4)c3)cn2)[C@H](O)[C@@H](O)[C@@H]1O [Compound 10, (2S,3S,4S,5R,6S)-methyl 6-((5-((S)-2-(3-cyclopropoxy-4-(difluoromethoxy)phenyl)-2-(6-(2-hydroxypropan-2-yl)pyridin-3-yl)ethyl)pyridin-2-yl)oxy)-3,4,5-trihydroxytetrahydro-2H-pyran-2-carboxylate] | only trace amount | 0.3 | 100 | 64 | 74 | 96 | 47 | 67 |  |  |  |  | 
CC(C)(O)c1ccc([C@@H](Cc2ccc(=O)[nH]c2)c2ccc(OC(F)F)c(OC3CC3)c2)cn1 [IIIb, (S)-5-(2-(3-cyclopropoxy-4-(difluoromethoxy)phenyl)-2-(6-(2-hydroxypropan-2-yl)pyridin-3-yl)ethyl)pyridin-2(1H)-one] |  |  |  |  |  |  |  |  | < 10 | < 50 | 200 | < 10 | ≥ 2
